Results: PubChem BioAssay (NCI)
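The compound was tested at five concentrations on cells cultured in 96-well plates, with a 48-hour exposure period. GI50 is the concentration that inhibits growth by half. TGI: total growth inhibition.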

Experiments:
Experiment in all cases: NCI tumour cell line growth inhibition, 48 h
[1] = system: SF-539 CNS
[2] = system: NCI-H226 lung
[3] = system: SN12C renal
[4] = system: BT-549 breast
[5] = system: MDA-MB-435
[6] = system: OVCAR-5 ovarian
[7] = system: NCI-H23 lung
[8] = system: UO-31 renal
[9] = system: OVCAR-3 ovarian
[10] = system: PC-3 prostate
[11] = system: HOP-62 NSCLC
[12] = system: SF-268 CNS
[13] = system: SR leukemia
[14] = system: CAKI-1 renal
[15] = system: RXF 393 renal
[16] = system: SW-620 colon
[17] = system: SK-OV-3 ovarian
[18] = system: DU-145 prostate
[19] = system: HS 578T breast
[20] = system: MOLT-4 leukemia
[21] = system: UACC-62 melanoma
[22] = system: U251 CNS
[23] = system: RPMI-8226 leukemia
[24] = system: OVCAR-4 ovarian
[25] = system: SK-MEL-28 melanoma
[26] = system: UACC-257 melanoma
[27] = system: SNB-19 CNS
[28] = system: NCI-H522 lung
[29] = system: ACHN renal
[30] = system: K-562 leukemia
[31] = system: IGROV1 ovarian
[32] = system: HCT-116 colon
[33] = system: EKVX NSCLC
[34] = system: OVCAR-8 ovarian
[35] = system: CCRF-CEM leukemia
[36] = system: M14 melanoma
[37] = system: NCI-H460 lung
[38] = system: TK-10 renal
[39] = system: SK-MEL-5 melanoma
[40] = system: SK-MEL-2 melanoma
[41] = system: 786-0 renal
[42] = system: A549 NSCLC
[43] = system: HT29 colon
[44] = system: MDA-MB-231 breast
[45] = system: KM12 colon
[46] = system: HCT-15 colon
[47] = system: T-47D breast
[48] = system: HCC-2998 colon
[49] = system: COLO 205 colon
[50] = system: MALME-3M melanoma
[51] = system: SF-295 CNS
[52] = system: NCI/ADR-RES ovarian
[53] = system: MCF7 breast
[54] = system: LOX IMVI melanoma
[55] = system: HOP-92 NSCLC
[56] = system: HL-60(TB) leukemia
[57] = system: SNB-75 CNS
[58] = system: A498 renal

`COc1cc2c(cc1C)NC(=O)/C2=C/c1c(C)nc2sc(C)cn12` was tested, and the GI50 [1] was over 100 µM, the TGI [1] was over 100 µM and the GI50 [2] was 82.8 µM. For the same compound, the TGI [2] was over 100 µM, the GI50 [3] was 74.5 µM and the TGI [3] was over 100 µM. It also gave a GI50 [4] of 40.4 µM, a TGI [4] of over 100 µM and a GI50 [5] of 32.4 µM. It also gave a TGI [5] of over 100 µM, a GI50 [6] of over 100 µM and a TGI [6] of over 100 µM. For the same compound, the GI50 [7] was 61.7 µM, the TGI [7] was over 100 µM and the GI50 [8] was 86.6 µM. It also gave a TGI [8] of over 100 µM, a GI50 [9] of 74.7 µM and a TGI [9] of over 100 µM. The GI50 [10] was 34.3 µM, the TGI [10] was over 100 µM and the GI50 [11] was over 100 µM. It also gave a TGI [11] of over 100 µM, a GI50 [12] of 85.3 µM and a TGI [12] of over 100 µM. It also gave a GI50 [13] of 22.6 µM, a TGI [13] of over 100 µM and a GI50 [14] of 52 µM. It also gave a TGI [14] of over 100 µM, a GI50 [15] of over 100 µM and a TGI [15] of over 100 µM. It also gave a GI50 [16] of 63 µM, a TGI [16] of over 100 µM and a GI50 [17] of over 100 µM. It also gave a TGI [17] of over 100 µM, a GI50 [18] of over 100 µM and a TGI [18] of over 100 µM. It also gave a GI50 [19] of 49.8 µM, a TGI [19] of over 100 µM and a GI50 [20] of 34.4 µM. For the same compound, the TGI [20] was over 100 µM, the GI50 [21] was 38.9 µM and the TGI [21] was over 100 µM. The GI50 [22] was over 100 µM, the TGI [22] was over 100 µM and the GI50 [23] was 31.3 µM. It also gave a TGI [23] of over 100 µM, a GI50 [24] of over 100 µM and a TGI [24] of over 100 µM. It also gave a GI50 [25] of over 100 µM, a TGI [25] of over 100 µM and a GI50 [26] of 62.3 µM. It also gave a TGI [26] of over 100 µM, a GI50 [27] of over 100 µM and a TGI [27] of over 100 µM. The GI50 [28] was 52.5 µM, the TGI [28] was over 100 µM and the GI50 [29] was over 100 µM. It also gave a TGI [29] of over 100 µM, a GI50 [30] of 35.3 µM and a TGI [30] of over 100 µM. For the same compound, the GI50 [31] was 26.8 µM, the TGI [31] was over 100 µM and the GI50 [32] was 53.5 µM. It also gave a TGI [32] of over 100 µM, a GI50 [33] of 49.2 µM and a TGI [33] of over 100 µM. It also gave a GI50 [34] of over 100 µM, a TGI [34] of over 100 µM and a GI50 [35] of 53.4 µM. The TGI [35] was over 100 µM, the GI50 [36] was 44.2 µM and the TGI [36] was over 100 µM. It also gave a GI50 [37] of 45.7 µM, a TGI [37] of over 100 µM and a GI50 [38] of 68 µM. For the same compound, the TGI [38] was over 100 µM, the GI50 [39] was 24.4 µM and the TGI [39] was 64.7 µM. It also gave a GI50 [40] of over 100 µM, a TGI [40] of over 100 µM and a GI50 [41] of over 100 µM. For the same compound, the TGI [41] was over 100 µM, the GI50 [42] was 60.8 µM and the TGI [42] was over 100 µM. For the same compound, the GI50 [43] was over 100 µM, the TGI [43] was over 100 µM and the GI50 [44] was 40.9 µM. For the same compound, the TGI [44] was over 100 µM, the GI50 [45] was 40.7 µM and the TGI [45] was over 100 µM. For the same compound, the GI50 [46] was over 100 µM, the TGI [46] was over 100 µM and the GI50 [47] was 64.4 µM. For the same compound, the TGI [47] was over 100 µM, the GI50 [48] was 31.7 µM and the TGI [48] was over 100 µM. For the same compound, the GI50 [49] was 73.6 µM, the TGI [49] was over 100 µM and the GI50 [50] was 60.1 µM. The TGI [50] was over 100 µM, the GI50 [51] was 45.2 µM and the TGI [51] was over 100 µM. For the same compound, the GI50 [52] was 45.5 µM, the TGI [52] was over 100 µM and the GI50 [53] was 64.1 µM. It also gave a TGI [53] of over 100 µM, a GI50 [54] of over 100 µM and a TGI [54] of over 100 µM. The GI50 [55] was 22.1 µM and the TGI [55] was over 100 µM.

`O=C(Nc1cc(Cl)cc(Cl)c1)c1ccc(NC2=C(Cl)C(=O)N(Cc3ccccc3)C2=O)cc1` was tested, and the GI50 [1] was 3.5 µM, the TGI [1] was 13.7 µM and the GI50 [2] was 11.5 µM. It also gave a TGI [2] of 25.1 µM, a GI50 [3] of 6.83 µM and a TGI [3] of 22.6 µM. It also gave a GI50 [4] of 4.59 µM, a TGI [4] of 19.3 µM and a GI50 [5] of 11.7 µM. The TGI [5] was 25.2 µM, the GI50 [6] was 4.68 µM and the TGI [6] was 17.8 µM. It also gave a GI50 [7] of 4.16 µM, a TGI [7] of 16.3 µM and a GI50 [8] of 2.29 µM. The TGI [8] was 6.01 µM, the GI50 [56] was 1.55 µM and the TGI [56] was 4.43 µM. For the same compound, the GI50 [9] was 1.99 µM, the TGI [9] was 5.37 µM and the GI50 [10] was 3.29 µM. The TGI [10] was 12.7 µM, the GI50 [11] was 4.21 µM and the TGI [11] was 17.8 µM. For the same compound, the GI50 [12] was 2.55 µM, the TGI [12] was 7.46 µM and the GI50 [13] was 1.51 µM. For the same compound, the TGI [13] was 4.81 µM, the GI50 [14] was 0.799 µM and the TGI [14] was 2.98 µM. It also gave a GI50 [17] of 22 µM, a TGI [17] of 73.7 µM and a GI50 [18] of 0.96 µM. It also gave a TGI [18] of 6.91 µM, a GI50 [19] of 1.99 µM and a TGI [19] of 5.49 µM. It also gave a GI50 [20] of 1.51 µM, a TGI [20] of 4.91 µM and a GI50 [21] of 4.13 µM. The TGI [21] was 16.7 µM, the GI50 [22] was 3.04 µM and the TGI [22] was 12.8 µM. For the same compound, the GI50 [23] was 1.74 µM, the TGI [23] was 4.2 µM and the GI50 [24] was 18.6 µM. It also gave a TGI [24] of over 100 µM, a GI50 [25] of 41.9 µM and a TGI [25] of over 100 µM. For the same compound, the GI50 [26] was 11.5 µM, the TGI [26] was 27.1 µM and the GI50 [27] was 41.7 µM. The TGI [27] was over 100 µM, the GI50 [28] was 7.78 µM and the TGI [28] was 25.7 µM. It also gave a GI50 [29] of 1.82 µM, a TGI [29] of 7.77 µM and a GI50 [30] of 2.31 µM. For the same compound, the TGI [30] was 6.93 µM, the GI50 [31] was 1.57 µM and the TGI [31] was 3.32 µM. For the same compound, the GI50 [32] was 0.743 µM, the TGI [32] was 3.76 µM and the GI50 [57] was 35.4 µM. It also gave a TGI [57] of 74.5 µM, a GI50 [33] of 13.9 µM and a TGI [33] of 28.7 µM. It also gave a GI50 [34] of 2.62 µM, a TGI [34] of 6.32 µM and a GI50 [35] of 3.17 µM. For the same compound, the TGI [35] was 12.1 µM, the GI50 [36] was 9.37 µM and the TGI [36] was 24.2 µM. It also gave a GI50 [37] of 1.8 µM, a TGI [37] of 4.51 µM and a GI50 [38] of 19.5 µM. The TGI [38] was 51.5 µM, the GI50 [39] was 1.57 µM and the TGI [39] was 3.19 µM. It also gave a GI50 [40] of 12.7 µM, a TGI [40] of 33.9 µM and a GI50 [41] of 2.87 µM. The TGI [41] was 8.74 µM, the GI50 [42] was 10.8 µM and the TGI [42] was 32.4 µM. For the same compound, the GI50 [58] was 8.06 µM, the TGI [58] was 22.2 µM and the GI50 [43] was 16.8 µM. For the same compound, the TGI [43] was over 100 µM, the GI50 [44] was 5.74 µM and the TGI [44] was 22.4 µM. The GI50 [45] was 6.43 µM, the TGI [45] was 26.2 µM and the GI50 [46] was 4.68 µM. For the same compound, the TGI [46] was 19.7 µM, the GI50 [47] was 30.9 µM and the TGI [47] was over 100 µM. The GI50 [49] was 28.6 µM, the TGI [49] was over 100 µM and the GI50 [50] was 14.6 µM. The TGI [50] was 30.4 µM, the GI50 [51] was 2.49 µM and the TGI [51] was 13.6 µM. It also gave a GI50 [52] of 11.3 µM, a TGI [52] of 26.7 µM and a GI50 [53] of 1.29 µM. It also gave a TGI [53] of 4.86 µM, a GI50 [54] of 2.21 µM and a TGI [54] of 5.86 µM.
